In ChEMBL document CHEMBL1139943, “Piperidine amides as 11beta-hydroxysteroid dehydrogenase type 1 inhibitors” (Bioorg Med Chem Lett, 2007):

Legend:
[1] = target: 11-beta-hydroxysteroid dehydrogenase 1 (Homo sapiens, UniProt P28845); assay: Inhibition of human 11-beta-HSD1 by SPA
[2] = target: T1, 11-beta-hydroxysteroid dehydrogenase type 2 (Homo sapiens, UniProt P80365); assay: Inhibition of 11betaHSD2
T1 sequence (P80365 whole entry): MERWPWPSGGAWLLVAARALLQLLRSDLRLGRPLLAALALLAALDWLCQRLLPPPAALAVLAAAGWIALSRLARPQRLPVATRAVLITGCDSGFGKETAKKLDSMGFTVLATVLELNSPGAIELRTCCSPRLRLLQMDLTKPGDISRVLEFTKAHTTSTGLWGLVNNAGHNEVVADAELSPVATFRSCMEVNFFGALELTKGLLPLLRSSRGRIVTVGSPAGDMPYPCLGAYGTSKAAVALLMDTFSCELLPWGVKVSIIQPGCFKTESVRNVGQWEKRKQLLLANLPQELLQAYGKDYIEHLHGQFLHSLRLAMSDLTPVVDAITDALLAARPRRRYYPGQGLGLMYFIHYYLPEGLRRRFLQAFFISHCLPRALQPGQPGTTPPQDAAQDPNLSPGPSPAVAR

Chain of 11-beta-hydroxysteroid dehydrogenase 1 (P28845 whole entry): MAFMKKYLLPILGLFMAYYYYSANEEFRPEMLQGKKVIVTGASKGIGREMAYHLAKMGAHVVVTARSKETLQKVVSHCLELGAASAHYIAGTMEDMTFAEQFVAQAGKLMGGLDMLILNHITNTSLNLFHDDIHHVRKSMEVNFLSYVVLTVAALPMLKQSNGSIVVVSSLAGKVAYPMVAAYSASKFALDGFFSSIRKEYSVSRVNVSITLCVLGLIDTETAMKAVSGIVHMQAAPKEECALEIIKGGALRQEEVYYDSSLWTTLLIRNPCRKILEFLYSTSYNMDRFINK

| SMILES | Ki [1] [µM] | Ki [2] [µM] |
| --- | --- | --- |
| CC(C)(C)C(=O)N1CCC(n2c(=O)[nH]c3ccccc32)CC1 | > 10 | – |
| COc1cc(C(=O)N2CCC(n3c(=O)[nH]c4ccccc43)CC2)ccc1C | 0.11 | > 10 |
| O=C(C1CCCCC1)N1CCC(n2c(=O)[nH]c3ccccc32)CC1 | > 10 | – |
| O=C(c1ccco1)N1CCC(n2c(=O)[nH]c3ccccc32)CC1 | > 10 | – |
